PubChem BioAssay AID1259407 (Chemical Carcinogenesis Research Information System (CCRIS), 2018)
Calls of active or inactive are those of the source. No rule for the calls is given here.

Tested on: CCRIS mutagenicity, Ames/micronucleus/aberration tests
Experiment: CCRIS mutagenicity studies
[1] = Test System: AMES SALMONELLA TYPHIMURIUM, Strain/Indicator: TA100, Metabolic Activation: NONE, Method: STANDARD PLATE
[2] = Test System: AMES SALMONELLA TYPHIMURIUM, Strain/Indicator: TA100, Metabolic Activation: NONE, Method: PREINCUBATION
[3] = Test System: AMES SALMONELLA TYPHIMURIUM, Strain/Indicator: TA97A, Metabolic Activation: NONE, Method: PREINCUBATION
[4] = Test System: AMES SALMONELLA TYPHIMURIUM, Strain/Indicator: TA97A, Metabolic Activation: RAT, LIVER, S-9, AROCLOR 1254, Method: PREINCUBATION
[5] = Test System: AMES SALMONELLA TYPHIMURIUM, Strain/Indicator: TA98, Metabolic Activation: NONE, Method: PREINCUBATION
[6] = Test System: AMES SALMONELLA TYPHIMURIUM, Strain/Indicator: TA98, Metabolic Activation: RAT, LIVER, S-9, AROCLOR 1254, Method: PREINCUBATION
[7] = Test System: AMES SALMONELLA TYPHIMURIUM, Strain/Indicator: TA100, Metabolic Activation: RAT, LIVER, S-9, AROCLOR 1254, Method: PREINCUBATION

Measured: mutagenic call

CN(C)c1ccc(C(c2ccccc2)c2ccc(N(C)C)cc2)cc1
inactive: End Point: IN VIVO MICRONUCLEUS, Test System: PERIPHERAL BLOOD ERYTHROCYTES, Species: MOUSE, Strain/Sex: BIG BLUE B6C3F1/FEMALE, Route: DIET inactive; negative | Test System: AMES SALMONELLA TYPHIMURIUM, Strain/Indicator: TA97A, Metabolic Activation: NONE, Method: STANDARD PLATE inactive; negative | Test System: AMES SALMONELLA TYPHIMURIUM, Strain/Indicator: TA97A, Metabolic Activation: RAT LIVER S-9, 3-METHYLCHOLANTHRENE, PHENOBARBITAL, Method: STANDARD PLATE inactive; negative | Test System: AMES SALMONELLA TYPHIMURIUM, Strain/Indicator: TA98, Metabolic Activation: NONE, Method: STANDARD PLATE inactive; negative | Test System: AMES SALMONELLA TYPHIMURIUM, Strain/Indicator: TA98, Metabolic Activation: RAT LIVER S-9, 3-METHYLCHOLANTHRENE, PHENOBARBITAL, Method: STANDARD PLATE inactive; negative | [1] inactive; negative | Test System: AMES SALMONELLA TYPHIMURIUM, Strain/Indicator: TA100, Metabolic Activation: RAT LIVER S-9, 3-METHYLCHOLANTHRENE, PHENOBARBITAL, Method: STANDARD PLATE inactive; negative | Test System: AMES SALMONELLA TYPHIMURIUM, Strain/Indicator: TA102, Metabolic Activation: NONE, Method: STANDARD PLATE inactive; negative | Test System: AMES SALMONELLA TYPHIMURIUM, Strain/Indicator: TA102, Metabolic Activation: RAT LIVER S-9, 3-METHYLCHOLANTHRENE, PHENOBARBITAL, Method: STANDARD PLATE inactive; negative | Test System: CHO/HGPRT, Strain/Indicator: CHO-K1, Metabolic Activation: NONE, Method: STANDARD PLATE inactive; negative | Test System: CHO/HGPRT, Strain/Indicator: CHO-K1, Metabolic Activation: RAT LIVER S-9, 3-METHYLCHOLANTHRENE, PHENOBARBITAL, Method: STANDARD PLATE inactive; negative

CN(CC(O)CO)N=O (stereo unspecified)
inactive: [2] inactive; negative
active: Test System: AMES SALMONELLA TYPHIMURIUM, Strain/Indicator: TA100, Metabolic Activation: HAMSTER, LIVER, S-9, 3-METHYLCHOLANTHRENE, Method: PREINCUBATION active; positive | Test System: AMES SALMONELLA TYPHIMURIUM, Strain/Indicator: TA100, Metabolic Activation: HAMSTER, LIVER, S-9, PHENOBARBITAL, Method: PREINCUBATION active; positive | Test System: AMES SALMONELLA TYPHIMURIUM, Strain/Indicator: TA100, Metabolic Activation: HAMSTER, LIVER, S-9, Method: PREINCUBATION active; positive | Test System: AMES SALMONELLA TYPHIMURIUM, Strain/Indicator: TA100, Metabolic Activation: MOUSE, LIVER, S-9, 3-METHYLCHOLANTHRENE, Method: PREINCUBATION active; positive | Test System: AMES SALMONELLA TYPHIMURIUM, Strain/Indicator: TA100, Metabolic Activation: MOUSE, LIVER, S-9, PHENOBARBITAL, Method: PREINCUBATION active; positive | Test System: AMES SALMONELLA TYPHIMURIUM, Strain/Indicator: TA100, Metabolic Activation: MOUSE, LIVER, S-9, Method: PREINCUBATION active; positive | Test System: AMES SALMONELLA TYPHIMURIUM, Strain/Indicator: TA100, Method: PREINCUBATION active; positive

OC1C=Cc2c(ccc3c2-c2cccc4cccc-3c24)C1O (stereo unspecified)
inactive: [3] inactive; negative | [5] inactive; negative | [2] inactive; negative
active: [4] active; positive | [6] active; positive | [7] active; positive

O=[N+]([O-])c1ccc2sc3ccccc3c2c1
active: Test System: AMES SALMONELLA TYPHIMURIUM, Strain/Indicator: TA98 (1,8-DNP6), Metabolic Activation: NONE, Method: PREINCUBATION active; positive | Test System: AMES SALMONELLA TYPHIMURIUM, Strain/Indicator: TA98(NR), Metabolic Activation: NONE, Method: PREINCUBATION active; positive | Test System: AMES SALMONELLA TYPHIMURIUM, Strain/Indicator: TA98(NR), Metabolic Activation: RAT LIVER S-9, 3-METHYLCHOLANTHRENE (10%), Method: PREINCUBATION active; positive | [5] active; positive

OC1C=Cc2c(cc3ccc4cccc5ccc2c3c45)C1 (stereo unspecified)
active: Test System: AMES SALMONELLA TYPHIMURIUM, Strain/Indicator: TA98, Metabolic Activation: RAT, LIVER, S-9, AROCLOR 1254, Method: STANDARD PLATE active; positive

NN(CCO)c1ccn([C@@H]2O[C@H](CO)[C@@H](O)[C@H]2O)c(=O)n1
inactive: Test System: CHINESE HAMSTER V-79, Strain/Indicator: V-79/6-THIOGUANINE, Metabolic Activation: NONE, Method: REPLATING inactive; negative

N#[N+]c1cnc([O-])[nH]c1=O
active: [5] active; positive | [6] active; positive | [2] active; positive | [7] active; positive

CC(=O)N(O)c1ccc(Oc2ccc(Cl)cc2)cc1
active: Test System: AMES SALMONELLA TYPHIMURIUM, Strain/Indicator: TA100, Metabolic Activation: GUINEA PIG, LIVER, MICROSOMAL FRACTION, PCB active; positive | Test System: AMES SALMONELLA TYPHIMURIUM, Strain/Indicator: TA100, Metabolic Activation: GUINEA PIG, LIVER, S-9, PCB active; positive | Test System: AMES SALMONELLA TYPHIMURIUM, Strain/Indicator: TA100, Metabolic Activation: GUINEA PIG, LIVER, S-105, PCB active; positive | Test System: AMES SALMONELLA TYPHIMURIUM, Strain/Indicator: TA100, Metabolic Activation: RAT, LIVER, S-9, KANECLOR 500, Method: STANDARD PLATE active; positive
inactive: [1] inactive; negative

Oc1ccc2cc3ccc4cccc5ccc(c2c1)c3c45
active: Test System: AMES SALMONELLA TYPHIMURIUM, Strain/Indicator: TA98, Metabolic Activation: RAT, LIVER, 3-METHYLCHOLANTHRENE, Method: LIQUID SUSPENSION active; positive | Test System: AMES SALMONELLA TYPHIMURIUM, Strain/Indicator: TA1538, Metabolic Activation: RAT, LIVER, 3-METHYLCHOLANTHRENE, Method: LIQUID SUSPENSION active; positive | Test System: CHINESE HAMSTER V-79, Strain/Indicator: V-79/OUABAIN, Metabolic Activation: NONE, Method: STANDARD PLATE active; positive

Cc1nc2ccc(NCCN(C)C)c3c(=O)c4cc(O)ccc4n1c23
active: Test System: CHINESE HAMSTER V-79, Strain/Indicator: V-79 (HGPRT)/6-THIOGUANINE, Metabolic Activation: NONE active; positive

COc1ccc2cc3c4c(cc(OC)c(OC)c4c2c1)CCN3C
inactive: Test System: AMES SALMONELLA TYPHIMURIUM, Strain/Indicator: TA100, Metabolic Activation: RAT, LIVER, S-9, PHENOBARBITAL AND BETA-NAPHTHOFLAVONE, Method: PREINCUBATION inactive; negative

C/C=C/C=C/C(=O)O
inactive: [3] inactive; negative | [4] inactive; negative | Test System: AMES SALMONELLA TYPHIMURIUM, Strain/Indicator: TA102, Metabolic Activation: NONE, Method: PREINCUBATION inactive; negative | Test System: AMES SALMONELLA TYPHIMURIUM, Strain/Indicator: TA102, Metabolic Activation: RAT, LIVER, S-9, AROCLOR 1254, Method: PREINCUBATION inactive; negative
active: Test System: CHINESE HAMSTER V-79, Strain/Indicator: V-79/6-THIOGUANINE, Metabolic Activation: NONE, Method: FLASK ASSAY active; positive

O=[N+]([O-])c1ccc(/C=C/c2cccc(CO)n2)o1
active: Test System: UDS HUMAN FIBROBLASTS, Strain/Indicator: THY INCORP (NON-S-PHASE), Metabolic Activation: NONE, Method: AUTORADIOGRAPHY active; positive
